The values that follow are results of earlier work, collected in PMC10757118, “HS‐10352 in hormone receptor‐positive, HER2‐negative advanced breast cancer: A phase 1 dose‐escalation trial” (Cancer Medicine, 2023).

Data set [1] concerns PIK3CA‐mutant breast cancer. Further details: method as in PMID 29066505. Particulars: PIK3CA‐mutant breast cancer patients ref 31.
Data set [2] relates to PIK3CA‐mutant, HR‐positive, HER2‐negative breast cancer. The arrangement: method as in ref 33 = [33]; 33 Juric D , Kalinsky K , Oliveira M , et al. Abstract OT1‐08‐04: a first‐in‐human phase Ia dose escalation study of GDC‐0077, a p110a‐selective and mutant‐degrading PI3K inhibitor, in patients with P. Particulars: single agent, HER2‐negative breast cancer patients ref 33.
The test system of data set [3] is ER‐positive, HER2‐negative breast cancer. Further details: method as in PMID 29401002. The note with it: monotherapy, HER2‐negative breast cancer patients ref 19.
Data set [4] deals with HR‐positive, HER2‐negative breast cancer with altered AKT pathways. Further details: method as in ref 35 = [35]; 35 Turner N , Oliveira M , Howell SJ , et al. Abstract GS3‐04: GS3‐04 Capivasertib and fulvestrant for patients with aromatase inhibitor‐resistant hormone receptor‐positive/human epidermal growth fact. Particulars: CAPItello‐291, altered AKT pathways ref 35.

`NC1(C(=O)N[C@@H](CCO)c2ccc(Cl)cc2)CCN(c2ncnc3[nH]ccc23)CC1` [Capivasertib]: in data set [1], the ORR was 4%. Take `C[C@H](Nc1ccc2c(c1)OCCn1cc(N3C(=O)OC[C@H]3C(F)F)nc1-2)C(N)=O` [GDC‐0077]: the “confirmed ORR” value in data set [2] is 20%.

On to `Cc1nc(NC(=O)N2CCC[C@H]2C(N)=O)sc1-c1ccnc(C(C)(C)C(F)(F)F)c1` [alpelisib], for which, in data set [3], the ORR is 4.3%. As to `C[C@]12CC[C@@H]3c4ccc(O)cc4C[C@@H](CCCCCCCCC[S+]([O-])CCCC(F)(F)C(F)(F)F)[C@H]3[C@@H]1CC[C@@H]2O` (some centres unmarked) [fulvestrant without capivasertib], in data set [4], the ORR is listed as 9.7% and the “median PFS” value is 3.1 months.
